Measured values taken from paper PMC6934184, “Selective DNA-PKcs inhibition extends the therapeutic index of localized radiotherapy and chemotherapy” (The Journal of Clinical Investigation, 2019).

Target: T1, MAPK13 (p38 delta) (Homo sapiens, UniProt O15264)
T1 construct: purchased Thermo Fisher Scientific (Life Technologies) SelectScreen
Assay: SelectScreen Z'LYTE
Assay type: biochemical
In short: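 NU5455 was profiled across the SelectScreen Broad panel of kinase activity and binding assays. Z'LYTE reactions such as CSF1R ran at apparent Km ATP, while the Adapta CAMK1 assay used ATP listed as 10. Values are given as percent.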

T1 sequence (O15264 whole entry): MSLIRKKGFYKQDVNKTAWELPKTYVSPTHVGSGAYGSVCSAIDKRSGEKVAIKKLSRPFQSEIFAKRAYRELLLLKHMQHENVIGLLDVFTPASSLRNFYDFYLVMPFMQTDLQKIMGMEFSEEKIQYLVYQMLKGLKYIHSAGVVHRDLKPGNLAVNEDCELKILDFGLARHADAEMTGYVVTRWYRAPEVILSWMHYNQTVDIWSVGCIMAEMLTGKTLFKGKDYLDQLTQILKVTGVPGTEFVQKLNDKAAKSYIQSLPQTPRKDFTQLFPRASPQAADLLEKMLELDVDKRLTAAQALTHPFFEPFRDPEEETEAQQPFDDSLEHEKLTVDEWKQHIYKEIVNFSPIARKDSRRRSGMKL

SMILES: CN(C(=O)CN1CCOCC1)c1ccc2sc3c(-c4cccc5c(=O)cc(N6CC7CCC(C6)O7)oc45)cccc3c2c1 [NU5455]
- inhibition at 1 µM: 5.8%
